A short description of one data set: Microsomal stability. In kind it is in vitro ADME, mouse. As for the experimental part:
The assay was performed in duplicates essentially as described previously,[58] using male CD1 mouse liver microsomes (Thermo Fischer Scientific, 20 mg/mL), NADPH-regenerating agent Solution A and Solution B (Promega), potassium phosphate buffer (100 mM, pH 7.4), and test compounds (1 mM, diluted from 10 mM DMSO stock in the buffer). The samples were analyzed in an Agilent 6130 Mass Spectrometer instrument using electron spray ionization (ESI) coupled to an Agilent 1200 HPLC system (ESI-LCMS) with a C18 reverse phase column (Zorbax Eclipse XBD-C18, 4.6 mm × 50 mm) using a linear gradient of the binary solvent system of 100% mobile phase A (water:MeCN:formic acid, 95:5:0.1 v/v%) to 100% mobile phase B (MeCN:formic acid, 100:0.1 v/v %) in 6 min, with a flow rate of 1 mL/min.
To a pre-warmed solution of potassium phosphate buffer (135.6 μL) in an Eppendorf tube at 37 °C were added Solution A (7.5 μL), Solution B (1.5 μL), microsomes (3.9 μL), and the test compound (1 mM, 1.5 μL, final concentration = 10 μM). The tube was briefly vortexed and incubated at 37 °C in a thermomixer. At 0, 15, 30, 45, and 60 min, 25 μL of each sample was transferred to an ice-cold solution containing an internal standard (5 μM in MeCN, 12.5 μL). The sample was briefly vortexed and centrifuged for 5 min at 10.000g. The supernatant (25 μL) was transferred to HPLC vial and analyzed by ESI-LCMS in single ion mode. The data was analyzed using GraphPad Prism (version 9).

The test system of a further data set is human neutrophils. As to the kind of experiment: Human neutrophil respiratory burst (luminol-amplified chemiluminescence). The data set is classed as cell-based. The note with it: for IC50: Neutrophil, read-out: pIC50 on C3-induced respiratory burst (converted). Here is the method:
Human peripheral blood neutrophils were isolated from healthy volunteer buffy coats. Initially, the majority of red blood cells were sedimented using 2% w/v dextran sulfate in a 0.9% NaCl solution for 15 min. Next, the upper phase was centrifuged for 10 min at 200g and the supernatant was discarded. The pellet was resuspended in 0.9% NaCl solution, and neutrophils were separated from here using Lymphoprep (STEMCELL Technologies #07851) and density-gradient centrifugation (400g for 30 min). Then, the remaining red blood cells were subjected to hypotonic lysis by addition of 10 mL of sterile water followed by addition of 10 mL of 1.8% NaCl solution. Cell count and viability were determined using trypan blue and a Countess cell counter. Isolated neutrophils were characterized by May–Grunwald–Giemsa staining and immediately used for migration assays or assessment of respiratory burst.
Human neutrophil respiratory burst was assessed via luminol-amplified chemiluminescence. Freshly isolated human neutrophils were seeded in a concentration of 100,000 cells/well in a flat bottom, white 96-well plate (PerkinElmer cat #6005680). Cells were pre-incubated for 30 min with test compounds or vehicles (DMSO) in HBSS in a humidified atmosphere at 37 °C and 5% CO2. Next, luminol (Merck cat #521-31-3) was added to a final concentration of 10 μM. Lastly, the vehicle or the FFA2 agonist, sodium propionate, was added to a final concentration of 1 mM. Immediately thereafter, chemiluminescence was evaluated with an LUMIstar Omega microplate reader (PerkinElmer) where light emission was recorded for 1 s/well every 60 s for 1 h at 37 °C. Experiments were performed in triplicate and analyzed using GraphPad Prism (version 9). Fold response was calculated as the relative luminescence of samples compared to the vehicle control.

For the next data set, the target named is T1, hFFA3 (Homo sapiens, UniProt O14843).
T1 construct: expressed in transfected cells; host or cells: Flp-In T-Rex 293 cells, doxycycline-induced
T1 sequence (O14843 1-346): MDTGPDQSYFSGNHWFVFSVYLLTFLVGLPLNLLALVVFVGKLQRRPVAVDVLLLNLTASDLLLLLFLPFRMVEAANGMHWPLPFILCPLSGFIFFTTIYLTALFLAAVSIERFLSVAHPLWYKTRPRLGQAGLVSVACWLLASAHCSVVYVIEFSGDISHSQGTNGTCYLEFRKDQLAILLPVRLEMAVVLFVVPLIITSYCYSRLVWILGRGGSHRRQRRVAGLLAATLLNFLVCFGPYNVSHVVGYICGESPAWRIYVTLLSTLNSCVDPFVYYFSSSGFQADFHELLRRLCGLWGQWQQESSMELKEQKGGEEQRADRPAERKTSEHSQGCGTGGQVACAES
As to the kind of experiment: cAMP assay, Flp-In T-Rex 293 cells expressing hFFA3-eYFP. The data set is classed as cell-based. The note with it: at 10 μM. As for the experimental part: The hFFA2-eYFP and hFFA3-eYFP Flp-In T-Rex 293 cell lines were maintained in Dulbecco’s modified Eagle mMedium (DMEM, ThermoFisher #11965092) supplemented with 10% (v/v) fetal bovine serum, 100 U/mL penicillin, 100 μg/mL streptomycin, 5 μg/mL blasticidin S, and 200 μg/mL hygromycin B and incubated at 37 °C and 5% CO2 in a humidified incubator. Cells were passaged at 70–80% confluency.
To determine the compound’s ability to activate or inhibit the Gi-coupled FFA2 or FFA3, intracellular cAMP concentrations were determined using Flp-In T-Rex293 cells induced to express hFFA2-eYFP or hFFA3-eYFP. […]
In agonist mode, the next day, the agonist was added in Hank’s balanced salt solution supplemented with 20 mM HEPES, 1 mM MgCl2, and 1 mM CaCl2 at pH 7.4 (HBSS) together with 50 μM 3-isobutyl-1-methylxanthine (IBMX) and 3 μM forskolin. After 25 min pf incubation at rt, agonist-induced intracellular cAMP production was assessed by stopping the reactions and measuring the output with an Envision plate reader using a time-resolved fluorescence protocol, measuring the light emission at 620 and 665 nm.
In antagonist mode, the cells were pre-incubated for 20 min with antagonist test compounds in HBSS together with 50 μM IBMX at rt. […] All analyses were performed in triplicate and analyzed using GraphPad Prism (version 9).

The mark [1] stands for this setting: % recovered after 60 min, mouse liver microsomes.

“Also recorded” adds a separate entry of the source.

The compound `O=C(O)C[C@H](Cc1ccc(C(F)(F)F)cc1)NC(=O)Cc1cccc(Cl)c1` [Compound 3, reference compound] had a microsomal stability in “Microsomal stability” (setting [1]) of 91%. Also, the IC50 with human neutrophils (propionate (C3) 1 mM) was 46.8 nM.
In the case of `COc1cccc(CC(=O)N[C@@H](Cc2ccc(C(F)(F)F)cc2)Cc2nnn[nH]2)c1` [Compound 16l, (S)-N-(1-(1H-Tetrazol-5-yl)-3-(4-(trifluoromethyl)phenyl)propan-2-yl)-2-(3-methoxyphenyl)acetamide], on hFFA3, the “activity on FFA3” value is on record as “devoid of activity”. Besides, the microsomal stability in “Microsomal stability” (setting [1]) and in the data set “Microsomal stability” (supplementary CSV) was 93% throughout. Also, the in vitro clearance entry in the data set “Microsomal stability” (mouse liver microsomes) is given as “low in vitro clearance”. Also, the IC50 in the data set with human neutrophils (propionate (C3) 1 mM) is 5.75 nM. Further, the “effect on respiratory burst induced by fMLP” value with human neutrophils (fMLP-induced) is listed as “did not exhibit any effect”. In addition, the “inhibition of propionate-induced respiratory burst” value in the data set on human neutrophils (propionate (C3) 1 mM) is listed as “completely inhibit; also recorded: full inhibition; also recorded: complete inhibition”.
`O=C(Cc1cncc(Br)c1)N[C@@H](Cc1ccc(C(F)(F)F)cc1)Cc1nnn[nH]1` [Compound 16w, (S)-3-(2-((1-(1H-Tetrazol-5-yl)-3-(4-(trifluoromethyl)phenyl)propan-2-yl)amino)-2-oxoethyl)-5-bromopyridin-1-ium 2,2,2-trifluoroacetate]: at hFFA3, the “activity on FFA3” value is “devoid of activity”. Further, the microsomal stability in “Microsomal stability” (setting [1]) and in “Microsomal stability” (supplementary CSV) was 92% in each case. For the same compound, the in vitro clearance result in “Microsomal stability” (mouse liver microsomes) is listed as “low in vitro clearance”.

Source of the values: paper PMC10547238, “Discovery of Potent Tetrazole Free Fatty Acid Receptor 2 Antagonists” (Journal of Medicinal Chemistry, 2023).
